According to patent publication US11261201B2 (priority 2018, dated 2022):
In brackets after ≈: the same amount, converted by molar mass. Structures can show the parent of a compound that is named as a salt. Where two headings read alike, the source gives them in different places.

Columns and labels:
H37RvMA = test: Tuberculosis Alamar Blue/Resazurin assay (MIC); type: cell-based; details: Mycobacterium tuberculosis, H37RV, read-out: WT H37Rv MTB Activity
E. coli = test: Gram negative MIC protocol (OD600, LB, 24 h); details: Escherichia coli
Procedure: (§1) Overnight bacterial cultures were grown in LB with no added antibiotics at 37° C. with shaking. A 1:1000 dilution of these cultures into LB was exposed to concentration gradients of compounds in 96-well plates (100 μL per well assay volume). Resulting plates were incubated at 37° C. for 24 h without shaking, and OD600 was measured at the end of the incubation. MICs were determined as the lowest concentrations at which OD600 remained at baseline.

A. baumannii = test: Gram negative MIC protocol (OD600, LB, 24 h); details: Acinetobacter baumannii
Procedure: as §1

[1] = read-out: MIC E. coli delta-TolC LB Media, E. coli delta-TolC strain, LB media, 24 h, OD600
[2] = read-out: MIC WT E. coli LB Media, wild-type E. coli, LB media, 24 h, OD600
[3] = read-out: MIC A. baumannii LB Media, A. baumannii, LB media, 24 h, OD600
[4] = read-out: MIC A. baumannii LB Media

Row | SMILES | MIC (H37RvMA; WT H37Rv MTB) | MIC (E. coli; [1]) | MIC (E. coli; [2]) | MIC (A. baumannii; [3]) | MIC (H37RvMA) | MIC (A. baumannii; [4])
1 | COCCOCCOc1ccccc1CNC(C)CC1CCCCC1 (stereo not drawn) [B301] | > 150 µM | 12 µM (≈ 4.19 µg/mL) | > 150 µM | > 150 µM |  | 
2 | CC(CC1CCCCC1)NCc1ccccc1OCc1cc(Br)no1 (stereo not drawn) [B302] | 55 µM (≈ 22.4 µg/mL) | < 1 µM | 150 µM (≈ 61.1 µg/mL) | 150 µM (≈ 61.1 µg/mL) |  | 
3 | COc1ccc(CNC(=O)COc2ccccc2CNC(C)CC2CCCCC2)cc1 (stereo not drawn) [B303] | 91 µM (≈ 38.6 µg/mL) | 7 µM (≈ 2.97 µg/mL) | > 150 µM | > 150 µM |  | 
4 | CC(CC1CCCCC1)NCc1ccccc1OCCCOCC(F)(F)F (stereo not drawn) [B304] | 91 µM (≈ 35.3 µg/mL) | 3 µM (≈ 1.16 µg/mL) | > 150 µM | > 150 µM |  | 
5 | CC(CC1CCCCC1)NCc1ccccc1OCCOCC(F)(F)F (stereo not drawn) [B305] | 150 µM (≈ 56 µg/mL) | 3 µM (≈ 1.12 µg/mL) | > 150 µM | 91 µM (≈ 34 µg/mL) |  | 
6 | Cc1noc(C)c1COc1ccccc1CNC(C)CC1CCCCC1 (stereo not drawn) [B306] | > 150 µM | 12 µM (≈ 4.28 µg/mL) | > 150 µM | > 150 µM |  | 
7 | CC(CC1CCCCC1)NCc1ccccc1OCCOC(C)(C)C (stereo not drawn) [B307] | 150 µM (≈ 52.1 µg/mL) | 20 µM (≈ 6.95 µg/mL) | > 150 µM | > 150 µM |  | 
8 | COCC(C)NC(=O)NC(=O)COc1ccccc1CNC(C)CC1CCCCC1 (stereo not drawn) [B308] | > 150 µM | 4 µM (≈ 1.68 µg/mL) | > 150 µM | 150 µM (≈ 62.9 µg/mL) |  | 
9 | CC(CC1CCCCC1)NCc1ccccc1OCC(=O)N1CCOCC1 (stereo not drawn) [B309] | > 150 µM | 33 µM (≈ 12.4 µg/mL) | > 150 µM | > 150 µM |  | 
10 | CC(CC1CCCCC1)NCc1ccccc1OCc1ncccn1 (stereo not drawn) [B310] | > 150 µM | 55 µM (≈ 18.7 µg/mL) | > 150 µM | > 150 µM |  | 
11 | CCOCOc1ccccc1CNC(C)CC1CCCCC1 (stereo not drawn) [B311] | > 150 µM | 7 µM (≈ 2.14 µg/mL) | > 150 µM | > 150 µM |  | 
12 | COCCCOc1ccccc1CNC(C)CC1CCCCC1 (stereo not drawn) [B312] | > 150 µM | 7 µM (≈ 2.24 µg/mL) | > 150 µM | > 150 µM |  | 
13 | CCOCCOc1ccccc1CNC(C)CC1CCCCC1 (stereo not drawn) [B313] | > 150 µM | 7 µM (≈ 2.24 µg/mL) | > 150 µM | > 150 µM |  | 
14 | CCSCCOc1ccccc1CNC(C)CC1CCCCC1 (stereo not drawn) [B314] | 150 µM (≈ 50.3 µg/mL) | 4 µM (≈ 1.34 µg/mL) | 150 µM (≈ 50.3 µg/mL) | 91 µM (≈ 30.5 µg/mL) |  | 
15 | CC(CC1CCCCC1)NCc1ccccc1OCCN(C)C (stereo not drawn) [B315] | > 150 µM | 150 µM (≈ 47.8 µg/mL) | 91 µM (≈ 29 µg/mL) | 150 µM (≈ 47.8 µg/mL) |  | 
16 | CC(CC1CCCCC1)NCc1ccccc1OCC(=O)N1CCOC(C)C1 (stereo not drawn) [B316] | > 150 µM | 7 µM (≈ 2.72 µg/mL) | > 150 µM | > 150 µM |  | 
17 | CC(CC1CCCCC1)NCc1ccccc1OCC(=O)NC(=O)NC1CCCC1 (stereo not drawn) [B317] | 55 µM (≈ 22.9 µg/mL) | 3 µM (≈ 1.25 µg/mL) | 91 µM (≈ 37.8 µg/mL) | 91 µM (≈ 37.8 µg/mL) |  | 
18 | CC(CC1CCCCC1)NCc1ccccc1OCC(=O)N(C)Cc1ccco1 (stereo not drawn) [B318] | 150 µM (≈ 59.8 µg/mL) | 7 µM (≈ 2.79 µg/mL) | > 150 µM | > 150 µM |  | 
19 | CC(CC1CCCCC1)NCc1ccccc1O (stereo not drawn) [B319] |  | 12 µM (≈ 2.97 µg/mL) | 33 µM (≈ 8.16 µg/mL) |  | 150 µM (≈ 37.1 µg/mL) | > 150 µM
20 | CC(CC1CCCCC1)NCc1ccccc1OCC(=O)N(C)C (stereo not drawn) [B320] | > 150 µM | 20 µM (≈ 6.65 µg/mL) | > 150 µM | > 150 µM |  | 
21 | CC(CC1CCCCC1)NCc1ccccc1OC(F)(F)F (stereo not drawn) [B321] | > 150 µM | 55 µM (≈ 17.3 µg/mL) | > 150 µM | > 150 µM |  | 

Row | SMILES | MIC (H37RvMA; WT H37Rv MTB) | MIC (E. coli; [1]) | MIC (E. coli; [2]) | MIC (A. baumannii; [3]) | MIC (H37RvMA) | MIC (A. baumannii; [4])
22 | CC(CC1CCCCC1)NCc1ccccc1OCc1nnn(C)n1 (stereo not drawn) [B322] | > 150 µM | 4 µM (≈ 1.37 µg/mL) | 150 µM (≈ 51.5 µg/mL) | 150 µM (≈ 51.5 µg/mL) |  | 
23 | CC(CC1CCCCC1)NCc1ccccc1OCc1nc(C(C)C)no1 (stereo not drawn) [B323] | 150 µM (≈ 55.7 µg/mL) | 4 µM (≈ 1.49 µg/mL) | > 150 µM | > 150 µM |  | 
24 | CCc1noc(COc2ccccc2CNC(C)CC2CCCCC2)n1 (stereo not drawn) [B324] | > 150 µM | 7 µM (≈ 2.5 µg/mL) | > 150 µM | > 150 µM |  | 
25 | CC(CC1CCCCC1)NCc1ccccc1OCC(=O)NC(=O)NC(C)(C)C (stereo not drawn) [B325] | 91 µM (≈ 36.7 µg/mL) | 4 µM (≈ 1.61 µg/mL) | > 150 µM | 150 µM (≈ 60.5 µg/mL) |  | 
26 | CC(CC1CCCCC1)NCc1ccccc1OC1CC2CCC1(C)C2(C)C (stereo not drawn) [B326] | 55 µM (≈ 21.1 µg/mL) | 12 µM (≈ 4.6 µg/mL) | > 150 µM | > 150 µM |  | 
27 | COC(=O)C(C)Oc1ccccc1CNC(C)CC1CCCCC1 (stereo not drawn) [B327] | > 150 µM | 7 µM (≈ 2.33 µg/mL) | > 150 µM | > 150 µM |  | 
28 | c1ccc(OCC2CCCCO2)c(CNCCC2CCCCC2)c1 (stereo not drawn) [B328, 2-cyclohexyl-N-(2-((tetrahydro-2H-pyran-2-yl)methoxy)benzyl)ethanamine hydrochloride] | 150 µM | 55 µM | > 150 µM | > 150 µM |  | 
29 | c1ccc(OCC2CCCO2)c(CNCCC2CCCCC2)c1 (stereo not drawn) [B329, 2-cyclohexyl-N-(2-((tetrahydrofuran-2-yl)methoxy)benzyl)ethanamine] | > 150 µM | 33 µM (≈ 10.5 µg/mL) | > 150 µM | > 150 µM |  | 
30 | c1ccc(OCC2CCOC2)c(CNCCC2CCCCC2)c1 (stereo not drawn) [B330, 2-cyclohexyl-N-(2-((tetrahydrofuran-3-yl)methoxy)benzyl)ethanamine] | > 150 µM | 33 µM (≈ 10.5 µg/mL) | > 150 µM | > 150 µM |  | 
31 | c1ccc(OCC2CCOCC2)c(CNCCC2CCCCC2)c1 [B331, 2-cyclohexyl-N-(2-((tetrahydro-2H-pyran-4-yl)methoxy)benzyl)ethanamine] | > 150 µM | 33 µM (≈ 10.9 µg/mL) | > 150 µM | > 150 µM |  | 
32 | CC(CC1CCCCC1)NCc1ccccc1OCC(=O)N1CC(C)OC(C)C1 (stereo not drawn) [B333] | > 150 µM | 7 µM (≈ 2.82 µg/mL) | > 150 µM | > 150 µM |  | 
33 | Cc1nc(COc2ccccc2CNC(C)CC2CCCCC2)no1 (stereo not drawn) [B334] | > 150 µM | 7 µM (≈ 2.4 µg/mL) | > 150 µM | > 150 µM |  | 
34 | CC(CC1CCCCC1)NCc1ccccc1OCC(=O)NC(N)=O (stereo not drawn) [B335] | > 150 µM | 4 µM (≈ 1.39 µg/mL) | 55 µM (≈ 19.1 µg/mL) | 150 µM (≈ 52.1 µg/mL) |  | 
35 | CC(CC1CCCCC1)NCc1ccccc1OCC(=O)NCC1CCCO1 (stereo not drawn) [B336] | > 150 µM | 33 µM (≈ 12.8 µg/mL) | > 150 µM | > 150 µM |  | 
36 | CC(CC1CCCCC1)NCc1ccccc1OCCO (stereo not drawn) [B337] | > 150 µM | 4 µM (≈ 1.17 µg/mL) | 55 µM (≈ 16 µg/mL) | 150 µM (≈ 43.7 µg/mL) |  | 
37 | CC(CC1CCCCC1)NCc1ccccc1OCC(N)=O (stereo not drawn) [B338] | > 150 µM | 12 µM (≈ 3.65 µg/mL) | 91 µM (≈ 27.7 µg/mL) | > 150 µM |  | 
38 | OB1OCc2cccc(CNCCC3CCCCC3)c21 [B339] | > 150 µM | 200 µM (≈ 54.6 µg/mL) | > 300 µM | > 300 µM |  | 
39 | OB(O)c1ccccc1CNCCC1CCCCC1 [B340, 2-((2-cyclohexylethylamino)methyl)phenylboronic acid] | > 150 µM | 55 µM (≈ 14.4 µg/mL) | > 150 µM | > 150 µM |  | 
40 | C[Si](C)(C)c1ccccc1CNCCC1CCCCC1 [B341, 2-cyclohexyl-N-(2-(trimethylsilyl)-benzyl)ethanamine hydrochloride] |  | 7 µM | > 150 µM |  | 150 µM | > 150 µM
41 | CC(CC1CCCCC1)NCc1ccccc1OCC(O)C(C)C (stereo not drawn) [B342] | 91 µM (≈ 30.3 µg/mL) | 4 µM (≈ 1.33 µg/mL) | 150 µM (≈ 50 µg/mL) | 150 µM (≈ 50 µg/mL) |  | 
42 | CC(CC1CCCCC1)NCc1ccccc1OCC(C)(C)O (stereo not drawn) [B343] | > 150 µM | 4 µM (≈ 1.28 µg/mL) | 150 µM (≈ 47.9 µg/mL) | 150 µM (≈ 47.9 µg/mL) |  | 
